In ChEMBL document CHEMBL1201862, “PubChem BioAssay data set” (2004):
Calls of active or inactive are those of the source.

Tests used:
[1] = molecular target: T1, Dual specificity protein phosphatase 6 (Rattus norvegicus, UniProt Q64346); format: functional
T1 sequence (Q64346 whole entry): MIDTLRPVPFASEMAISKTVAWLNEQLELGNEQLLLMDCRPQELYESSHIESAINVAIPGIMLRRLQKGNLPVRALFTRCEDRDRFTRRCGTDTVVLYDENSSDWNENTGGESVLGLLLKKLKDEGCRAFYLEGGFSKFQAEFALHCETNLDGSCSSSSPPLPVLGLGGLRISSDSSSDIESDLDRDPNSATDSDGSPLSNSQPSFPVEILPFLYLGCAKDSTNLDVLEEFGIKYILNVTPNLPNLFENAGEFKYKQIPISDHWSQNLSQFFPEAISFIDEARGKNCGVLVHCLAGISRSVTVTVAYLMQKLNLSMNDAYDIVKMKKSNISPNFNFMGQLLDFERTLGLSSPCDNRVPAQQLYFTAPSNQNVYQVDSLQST

[2] = molecular target: T2, Zinc finger protein mex-5 (Caenorhabditis elegans, UniProt Q9XUB2); assay: potency of MEX-5 RNA-binding blockers – biochemical, C. elegans, fluorescence polarization, dose response (AID 1960)
T2 sequence (Q9XUB2 whole entry): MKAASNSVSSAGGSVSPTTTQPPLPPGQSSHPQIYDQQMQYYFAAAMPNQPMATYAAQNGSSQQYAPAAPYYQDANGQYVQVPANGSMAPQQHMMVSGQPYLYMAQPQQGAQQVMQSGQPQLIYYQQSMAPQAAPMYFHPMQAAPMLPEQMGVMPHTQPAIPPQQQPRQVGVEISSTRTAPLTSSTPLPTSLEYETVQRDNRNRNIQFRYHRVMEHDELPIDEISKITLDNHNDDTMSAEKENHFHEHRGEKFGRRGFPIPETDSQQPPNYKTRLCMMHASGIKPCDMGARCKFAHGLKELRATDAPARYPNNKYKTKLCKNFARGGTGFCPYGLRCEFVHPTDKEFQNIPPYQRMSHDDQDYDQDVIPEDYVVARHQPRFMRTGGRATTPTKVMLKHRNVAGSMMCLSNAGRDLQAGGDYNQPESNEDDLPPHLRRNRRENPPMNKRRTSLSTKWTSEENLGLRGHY

[3] = molecular target: T3, Tyrosine-protein phosphatase non-receptor type 7 (Homo sapiens, UniProt P35236); format: functional
T3 sequence (P35236 whole entry): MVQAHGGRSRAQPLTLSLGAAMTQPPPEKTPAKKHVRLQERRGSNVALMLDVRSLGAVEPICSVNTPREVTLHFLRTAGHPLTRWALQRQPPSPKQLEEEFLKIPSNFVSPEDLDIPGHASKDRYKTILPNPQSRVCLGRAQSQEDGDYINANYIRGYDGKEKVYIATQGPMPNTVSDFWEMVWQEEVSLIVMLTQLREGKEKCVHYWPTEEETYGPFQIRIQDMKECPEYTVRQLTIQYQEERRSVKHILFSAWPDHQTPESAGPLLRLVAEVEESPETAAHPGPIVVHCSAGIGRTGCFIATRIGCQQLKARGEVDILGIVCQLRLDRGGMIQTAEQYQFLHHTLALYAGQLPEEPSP

[4] = molecular target: T4, RNA-binding protein pos-1 (Caenorhabditis elegans, UniProt G5EF15); assay: disruptors of C. elegans POS-1 RNA interaction – biochemical, fluorescence polarization, dose response (AID 1964);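 note: purified POS-1 fused to maltose binding protein made in E. coli; potency of compounds blocking POS-1 binding to fluorescent RNA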
T4 sequence (G5EF15 whole entry): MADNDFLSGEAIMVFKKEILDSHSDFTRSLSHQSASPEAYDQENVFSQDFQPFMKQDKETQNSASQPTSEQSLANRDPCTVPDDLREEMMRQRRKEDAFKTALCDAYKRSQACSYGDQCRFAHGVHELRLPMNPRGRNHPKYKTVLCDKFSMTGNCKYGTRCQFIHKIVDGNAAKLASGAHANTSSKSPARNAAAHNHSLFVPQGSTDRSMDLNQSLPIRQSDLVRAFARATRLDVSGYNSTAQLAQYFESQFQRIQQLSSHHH

[5] = molecular target: T1, Dual specificity protein phosphatase 6
[6] = molecular target: Heat shock cognate 71 kDa protein (Homo sapiens, UniProt P11142); assay: In Vitro Hsc70 Dose Response Fluorescence Polarization Assay. [Related pubchem assays: 1072 ]
Chain of Heat shock cognate 71 kDa protein (P11142 whole entry): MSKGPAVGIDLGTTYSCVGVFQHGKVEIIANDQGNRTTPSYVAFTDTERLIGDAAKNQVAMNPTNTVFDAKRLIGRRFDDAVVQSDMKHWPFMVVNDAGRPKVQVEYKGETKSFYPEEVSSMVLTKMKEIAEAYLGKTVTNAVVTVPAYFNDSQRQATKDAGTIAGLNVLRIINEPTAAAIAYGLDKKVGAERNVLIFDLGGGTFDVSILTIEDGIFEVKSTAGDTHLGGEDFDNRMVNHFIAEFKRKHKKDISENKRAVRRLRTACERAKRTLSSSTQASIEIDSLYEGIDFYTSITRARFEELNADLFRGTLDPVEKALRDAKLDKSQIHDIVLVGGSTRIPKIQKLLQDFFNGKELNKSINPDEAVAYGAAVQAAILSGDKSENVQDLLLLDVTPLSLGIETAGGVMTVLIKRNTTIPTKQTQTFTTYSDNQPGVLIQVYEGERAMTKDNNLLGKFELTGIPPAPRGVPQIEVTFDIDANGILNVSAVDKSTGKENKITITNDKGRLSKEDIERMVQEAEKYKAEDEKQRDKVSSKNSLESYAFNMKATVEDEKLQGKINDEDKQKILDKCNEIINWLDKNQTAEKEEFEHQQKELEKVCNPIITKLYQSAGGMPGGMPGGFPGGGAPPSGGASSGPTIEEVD

[7] = molecular target: Glyceraldehyde-3-phosphate dehydrogenase (Homo sapiens, UniProt P04406)
Chain of Glyceraldehyde-3-phosphate dehydrogenase (P04406 whole entry): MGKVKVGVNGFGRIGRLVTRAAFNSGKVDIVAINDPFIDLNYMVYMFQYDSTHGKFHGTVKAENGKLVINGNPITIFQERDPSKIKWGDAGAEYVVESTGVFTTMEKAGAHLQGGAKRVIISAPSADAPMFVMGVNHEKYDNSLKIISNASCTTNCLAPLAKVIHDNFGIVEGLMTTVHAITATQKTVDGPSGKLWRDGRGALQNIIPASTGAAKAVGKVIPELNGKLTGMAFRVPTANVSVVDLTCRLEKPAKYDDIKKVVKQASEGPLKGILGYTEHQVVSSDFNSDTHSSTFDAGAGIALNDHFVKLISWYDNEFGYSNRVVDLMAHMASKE

[8] = molecular target: Heat shock 70 kDa protein 1A (Homo sapiens, UniProt P0DMV8); assay: inhibition of Hsp70 binding activity – biochemical, fluorescence polarization, SAR follow-up (AID 1072)
Chain of Heat shock 70 kDa protein 1A (P0DMV8 whole entry): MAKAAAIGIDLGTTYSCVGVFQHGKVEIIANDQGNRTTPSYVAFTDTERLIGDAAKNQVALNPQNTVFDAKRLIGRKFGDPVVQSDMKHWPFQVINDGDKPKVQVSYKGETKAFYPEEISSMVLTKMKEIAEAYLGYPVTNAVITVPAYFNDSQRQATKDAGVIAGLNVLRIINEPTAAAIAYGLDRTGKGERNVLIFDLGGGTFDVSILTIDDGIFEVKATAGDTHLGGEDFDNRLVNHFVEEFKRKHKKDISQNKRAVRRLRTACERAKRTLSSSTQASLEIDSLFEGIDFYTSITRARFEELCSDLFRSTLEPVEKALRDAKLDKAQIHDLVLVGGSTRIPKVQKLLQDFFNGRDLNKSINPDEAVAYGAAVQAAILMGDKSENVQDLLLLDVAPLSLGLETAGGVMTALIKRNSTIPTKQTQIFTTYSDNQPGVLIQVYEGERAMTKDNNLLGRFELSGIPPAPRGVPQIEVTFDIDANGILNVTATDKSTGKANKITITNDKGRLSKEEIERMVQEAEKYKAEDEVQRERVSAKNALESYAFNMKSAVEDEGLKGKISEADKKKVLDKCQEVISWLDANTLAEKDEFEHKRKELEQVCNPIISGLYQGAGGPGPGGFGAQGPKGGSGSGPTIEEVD

[9] = SFLLRN-induced P-Selectin Platelet Surface Expression Measured in Cell-Based System Using Flow Cytometry - 2016-03_Inhibitor_Dose_DryPowder_Activity_Set3. [Related pubchem assays (depositor defined):AID1678]; format: functional
[10] = molecular target: Luciferin 4-monooxygenase (Photinus pyralis, UniProt P08659); assay: inhibition of purified Photinus pyralis luciferase – biochemical, luminescence, dose response (AID 1891)
Chain of Luciferin 4-monooxygenase (P08659 whole entry): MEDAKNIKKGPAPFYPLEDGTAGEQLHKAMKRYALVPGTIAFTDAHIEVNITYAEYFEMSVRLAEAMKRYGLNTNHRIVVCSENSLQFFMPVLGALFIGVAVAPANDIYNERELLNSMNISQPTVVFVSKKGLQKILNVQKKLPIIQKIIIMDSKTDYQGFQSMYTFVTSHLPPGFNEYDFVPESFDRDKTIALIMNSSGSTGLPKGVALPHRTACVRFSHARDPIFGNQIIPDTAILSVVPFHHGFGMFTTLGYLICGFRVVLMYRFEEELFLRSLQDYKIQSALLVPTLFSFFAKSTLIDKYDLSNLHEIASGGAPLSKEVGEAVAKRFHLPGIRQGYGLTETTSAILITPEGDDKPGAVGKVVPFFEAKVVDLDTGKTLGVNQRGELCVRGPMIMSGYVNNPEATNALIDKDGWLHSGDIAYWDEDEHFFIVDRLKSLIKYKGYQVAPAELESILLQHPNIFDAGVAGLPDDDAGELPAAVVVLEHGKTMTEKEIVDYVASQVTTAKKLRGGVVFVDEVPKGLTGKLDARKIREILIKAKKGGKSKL

[11] = Luminescence Cell-Based Dose Confirmation HTS to Identify Inhibitors of Platelet Dense Granule Release. [Related pubchem assays: 1663 (Primary HTS), 1678 (Summary of Project)]; format: functional
[12] = Luminescence Cell-Based Dose Response Follow up to Identify Inhibitors of Platelet Dense Granule Release. [Related pubchem assays (depositor defined):AID1663, AID1678, AID1889, AID2519]; format: functional
[13] = blockers of SFLLRN-triggered platelet ATP secretion – cell-based, human platelets, luminescence, dry powder, dose response (AID 493100); format: functional
[14] = PAR1 agonist-induced platelet activation inhibition – cell-based, fluorescence, flow cytometry, human platelets, dose response (AID 2511); format: functional
[15] = luciferase reporter signal suppression in cells – H4 neuroglioma cells, luminescence, dose response (AID 1990); format: functional, cell-based
[16] = Luminescence Cell-Based Dose Response HTS to Identify Inhibitors of 5'UTR Stem-Loop Driven Prion Protein mRNA Translation in H4 Neuroglioblastoma Cells. [Related pubchem assays: 1827 (Project Summary), 1813 (Primary HTS)]; format: functional
[17] = alpha-synuclein stem-loop luciferase translation blockers – H4 neuroglioma cells, luminescence, confirmation (AID 1988); format: functional, cell-based
[18] = Luminescence Cell-Based Dose Retest to Confirm Inhibitors of Cancer Stem Cells. [Related pubchem assays (depositor defined):AID2717, AID2721]; format: functional; settings: Homo sapiens
[19] = molecular target: T5, Microphthalmia-associated transcription factor (Homo sapiens, UniProt O75030); assay: reducers of TRPM1 reporter luminescence, concentration series – cell-based, SK-MEL-5, cherry-picked, set 3, MITF inhibitor project, dose response (AID 493073); format: functional;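 note: SK-MEL-5 melanoma cells with luciferase driven by the MITF target TRPM1 promoter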
T5 sequence (O75030 whole entry): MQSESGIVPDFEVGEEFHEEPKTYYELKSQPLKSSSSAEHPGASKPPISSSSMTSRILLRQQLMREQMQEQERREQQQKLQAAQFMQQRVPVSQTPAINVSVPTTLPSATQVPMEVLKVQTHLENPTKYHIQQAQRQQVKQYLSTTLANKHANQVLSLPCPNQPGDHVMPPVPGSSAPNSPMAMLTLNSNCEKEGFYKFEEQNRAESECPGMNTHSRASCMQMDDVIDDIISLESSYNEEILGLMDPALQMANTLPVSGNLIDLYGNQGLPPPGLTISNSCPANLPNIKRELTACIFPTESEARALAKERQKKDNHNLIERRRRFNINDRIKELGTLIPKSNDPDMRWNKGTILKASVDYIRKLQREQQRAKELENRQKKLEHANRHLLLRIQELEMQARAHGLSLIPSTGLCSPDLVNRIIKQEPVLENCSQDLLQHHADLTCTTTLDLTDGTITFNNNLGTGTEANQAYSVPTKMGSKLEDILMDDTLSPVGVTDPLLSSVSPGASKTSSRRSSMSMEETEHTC

A-375 = assay: MITF: Counter assay: A375 proliferation Measured in Cell-Based System Using Plate Reader - 2084-03_Inhibitor_Dose_DryPowder_Activity. [Related pubchem assays (depositor defined):AID488944]; format: functional; settings: Homo sapiens
Escherichia coli = assay: microbe, parasite or virus in culture
Genome polyprotein = Genome polyprotein (Hepatitis C virus, UniProt Q2Q167); assay: disruption of hepatitis C core self-association – biochemical, TR-FRET, dose response (AID 2159); design: species or system Hepacivirus hominis;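 note: blocks dimerization of HCV core protein measured by TR-FRET between tagged core106 pairs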
Chain of Genome polyprotein (Q2Q167 whole entry): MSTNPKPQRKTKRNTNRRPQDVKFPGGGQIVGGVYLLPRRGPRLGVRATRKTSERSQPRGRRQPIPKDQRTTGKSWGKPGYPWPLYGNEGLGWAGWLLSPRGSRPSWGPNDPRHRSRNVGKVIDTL

[20] = restored growth of temperature-sensitive Burl-1 yeast – whole organism, S. cerevisiae, Burl-1 ts mutant, luminescence, counter-screen for SUMOylation pathway inhibitor project, dose response (AID 463199); format: functional
[21] = viability of HCT116 lacking mutant beta-catenin – cell-based, human colon tumor, dose response (AID 1045); format: functional;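 note: HCT116 colon tumor cells with beta catenin knocked out; cells exposed to compound for 60 hours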
[22] = viability of PTEN-deleted HCT116 cells – cell-based, HCT116 PTEN knockout, dose response (AID 1047); format: functional;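 note: HCT116 colon tumor cells with PTEN knocked out; cells exposed to compound for 60 hours before readout; potency for loss of cell viability measured by luminescence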

SMILES: O=C(O)C1Nc2c(cccc2C(F)(F)F)C2C=CCC12 (stereo not given)
- IC50 [1]: 7.72 µM (active)
- EC50 [2]: 17.7 µM (active)
- IC50 [3]: 5.06 µM (active)
- EC50 [4]: 26.7 µM (active)
- IC50 [5]: 9.2 µM (active)
- IC50 [6]: 20.2 µM (active)
- IC50 [7]: > 100 µM (not active)
- IC50 [8]: 8.36 µM (active)

SMILES: CCCC(=O)Nc1cccc(NC(=O)c2ccccc2Br)c1
- AC50 [9]: < 0.156 µM (active)
- EC50 [10]: > 112 µM (not active)
- EC50 [11]: 1.87 µM (active)
- EC50 [12]: 4.87 µM (active)
- AC50 [13]: 11.2 µM (active)
- EC50 [14]: < 0.3 µM (active)

SMILES: CC(=O)Nc1sc(C)c(C)c1C(=O)OCC(=O)N(CC(C)C)c1c(N)n(Cc2ccccc2)c(=O)[nH]c1=O
- EC50 [15]: 10.2 µM (active)
- EC50 [16]: 9.81 µM (active)
- EC50 [17]: 3.96 µM (active)
- AC50 [18]: 1.64 µM (active)
- AC50 [19]: 5.29 µM (active)
- AC50 (A-375): 7.68 µM (active)

SMILES: CCCCOC(=O)C1=C(C)NC(=O)NC1c1ccc2c(c1)OCO2 (stereo not given)
- AC50 (Escherichia coli): 23.6 µM (active)

SMILES: O=C(N/N=C/C(Br)=C/c1ccccc1)c1[nH]nc2c1CCC2
- IC50 (Genome polyprotein): > 49.8 µM (not active)
- AC50 [20]: 120 µM (active)
- EC50 [21]: < 0.059 µM (active)
- EC50 [22]: < 0.059 µM (active)
